Test results as given in patent US20140107109A1, “AMINO-DIHYDROTHIAZINE AND AMINO-DIOXIDO DIHYDROTHIAZINE COMPOUNDS AS BETA-SECRETASE ANTAGONISTS AND METHODS OF USE” (Amgen Inc., priority 2012, published 2014).
Read-outs that look alike come from different tables or passages of the source.

Tests used:
Cathepsin D (Cat D) = target: T1, Cathepsin D (Cat D) (Homo sapiens, UniProt P07339); assay: In vitro enzymatic Cathepsin D (Cat D) FRET assay; type: biochemical; details: read-out: CatD IC50
T1 construct: Recombinant Cat D was expressed in CHO cells; made in house; host or cells: CHO cells
T1 sequence (P07339 65-412, species assumed): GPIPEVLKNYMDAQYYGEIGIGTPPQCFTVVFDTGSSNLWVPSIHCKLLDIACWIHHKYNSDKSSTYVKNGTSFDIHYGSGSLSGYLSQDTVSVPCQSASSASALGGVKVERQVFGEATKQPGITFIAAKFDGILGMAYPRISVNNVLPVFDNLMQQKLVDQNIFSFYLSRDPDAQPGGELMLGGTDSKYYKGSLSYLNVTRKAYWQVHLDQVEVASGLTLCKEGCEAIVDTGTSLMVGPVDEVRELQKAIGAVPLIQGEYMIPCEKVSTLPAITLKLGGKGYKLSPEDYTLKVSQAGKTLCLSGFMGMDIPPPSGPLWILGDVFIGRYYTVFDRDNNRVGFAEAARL
Summary of the method: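 Recombinant Cat D expressed in CHO cells, used at 9 nM and pre-incubated one hour with serially diluted inhibitor in DMSO. Peptide substrate carries a fluorophore and quencher flanking the cleavage site; reaction stopped with Tris buffer raising pH to neutrality, then fluorescence read.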

[1] = tested on: Aβ40 in conditioned medium of cells stably expressing Amyloid Precursor Protein (APP); assay: In vitro BACE cell-based assay (HEK cell assay), Aβ40 sandwich ELISA
Summary of the method: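 APP-stably expressing cells (40K/well, grown 24 h in DMEM/10% FBS) were treated 24 h with compounds in 10-point dose response starting at 100 μM or 10 μM, 0.1% DMSO final. Secreted Aβ40 was measured by sandwich ELISA (pAb40 capture, biotinylated 6E10 detection, europium time-resolved fluorescence); IC50 from percent inhibition.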

[2] = target: Beta Secretase enzyme (BACE1) (Homo sapiens, UniProt P56817); assay: In vitro enzymatic BACE FRET assay; type: biochemical; details: read-out: BACE1 FRET assay IC50
Beta Secretase enzyme (BACE1), sequence (P56817 46-501): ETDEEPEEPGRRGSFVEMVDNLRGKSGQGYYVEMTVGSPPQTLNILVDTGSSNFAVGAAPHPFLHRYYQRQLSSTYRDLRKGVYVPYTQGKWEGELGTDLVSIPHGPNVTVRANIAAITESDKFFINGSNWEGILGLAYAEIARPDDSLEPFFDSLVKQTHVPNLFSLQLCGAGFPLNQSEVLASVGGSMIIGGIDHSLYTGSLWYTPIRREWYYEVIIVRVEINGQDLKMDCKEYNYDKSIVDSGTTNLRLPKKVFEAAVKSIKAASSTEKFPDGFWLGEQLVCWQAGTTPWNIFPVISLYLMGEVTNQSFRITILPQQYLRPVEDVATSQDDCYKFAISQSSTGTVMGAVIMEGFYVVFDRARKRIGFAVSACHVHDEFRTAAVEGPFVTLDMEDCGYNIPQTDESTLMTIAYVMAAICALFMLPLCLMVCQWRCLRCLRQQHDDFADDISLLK
Summary of the method: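 BACE1 cleavage of a 50 nM fluorophore/quencher peptide FRET substrate ran for one hour in 0.05 M acetate pH 4.2, 10% DMSO, 100 uM genapol. Tris buffer raised pH to neutrality to stop the reaction before fluorescence was read (excitation 488 nm, […]).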

[3] = Homo sapiens, HEK293, average IC50, cell assay
[4] = Homo sapiens, HEK293, Aβ40, 24 h incubation
[5] = Homo sapiens, HEK293, average IC50, HEK cell assay
[6] = Homo sapiens, HEK293, average IC50, HEK cells

| IC50 (Cathepsin D (Cat D)) [µM] | IC50 [1, 3] [µM] | IC50 ([2]; average IC50, enzyme assay) [µM] | IC50 [2] [µM] | Compound | other results |
| --- | --- | --- | --- | --- | --- |
| 23.2 | 0.0188 | 0.00376 | – | C[C@@]1(c2cc(Nc3nccc4cc(Cl)cnc34)cnc2F)CS(=O)(=O)C2(CCC2)C(N)=N1 [Example 230, N-(5-((7R)-9-amino-7-methyl-5,5-dioxido-5-thia-8-azaspiro[3.5]non-8-en-7-yl)-6-fluoro-3-pyridinyl)-3-chloro-1,7-naphthyridin-8-amine] | – |
| 188 | 2.09 | 5.6 | – | CC1(C)C(N)=N[C@](C)(c2cc(Oc3ccc(C(F)(F)F)cn3)ccc2F)CS1(=O)=O [Example 279, (5R)-5-(2-fluoro-5-((5-(trifluoromethyl)-2-pyridinyl)oxy)phenyl)-2,2,5-trimethyl-5,6-dihydro-2H-1,4-thiazin-3-amine 1,1-dioxide] | – |
| 457 | 0.0399 | 0.016 | – | CC1(C)C(N)=N[C@](C)(c2cc(Nc3nccc4nc(C(F)(F)F)cnc34)cnc2F)CS1(=O)=O [Example 224, N-(5-((3R)-5-amino-3,6,6-trimethyl-1,1-dioxido-3,6-dihydro-2H-1,4-thiazin-3-yl)-6-fluoro-3-pyridinyl)-2-(trifluoromethyl)pyrido[3,4-b]pyrazin-5-amine] | – |
| 241 | – | 3.49 | – | Cc1nc2c(Oc3ccc(F)c([C@]4(C)CS(=O)(=O)C(C)(C)C(N)=N4)c3)nccc2s1 [Example 302, (5R)-5-(2-fluoro-5-((2-methyl[1,3]thiazolo[4,5-c]pyridin-4-yl)oxy)phenyl)-2,2,5-trimethyl-5,6-dihydro-2H-1,4-thiazin-3-amine 1,1-dioxide] | IC50 [1, 5]: 2.87 µM |
| > 400 | – | – | 0.051 | Cc1nc(C(=O)Nc2ccc(F)c([C@]3(C)CS(=O)(=O)C(C)(C)C(N)=N3)c2)cs1 [Example 27, N-(3-((3R)-5-amino-3,6,6-trimethyl-1,1-dioxido-3,6-dihydro-2H-1,4-thiazin-3-yl)-4-fluorophenyl)-2-methyl-1,3-thiazole-4-carboxamide] | IC50 [1, 4]: 0.0609 µM |
| 333 | – | – | 0.252 | COc1cnc(C(=O)Nc2cc(C3(C)CS(=O)(=O)C(C)(C)C(N)=N3)c(F)cn2)cn1 (stereo not drawn) [Example 41, N-(4-(5-amino-3,6,6-trimethyl-1,1-dioxido-3,6-dihydro-2H-1,4-thiazin-3-yl)-5-fluoropyridin-2-yl)-5-methoxypyrazine-2-carboxamide] | IC50 [1, 4]: 0.935 µM |
| 39.7 | 0.0029 | 0.00144 | – | COc1cnc2c(Nc3cnc(F)c([C@]4(C)CS(=O)(=O)C(C)(C)C(N)=N4)c3)ncc(F)c2c1 [Example 219, N-(5-((3R)-5-amino-3,6,6-trimethyl-1,1-dioxido-3,6-dihydro-2H-1,4-thiazin-3-yl)-6-fluoro-3-pyridinyl)-5-fluoro-3-methoxy-1,7-naphthyridin-8-amine] | – |
| 92.7 | 0.568 | 0.0509 | – | CC1(C)C(N)=N[C@](C)(c2cc(Oc3cc(-c4ccccc4)ccn3)ccc2F)CS1(=O)=O [Example 289, (5R)-5-(2-fluoro-5-((4-phenyl-2-pyridinyl)oxy)phenyl)-2,2,5-trimethyl-5,6-dihydro-2H-1,4-thiazin-3-amine 1,1-dioxide] | – |
| 63.6 | – | – | – | C[C@@]1(c2cc(Nc3nccc4cc(Cl)cnc34)ccc2F)CS(=O)(=O)C2(CCOC2)C(N)=N1 (mixture of isomers) [Example 182, (8R)-10-amino-8-(5-((3-chloro-1,7-naphthyridin-8-yl)amino)-2-fluorophenyl)-8-methyl-2-oxa-6-thia-9-azaspiro[4.5]dec-9-ene 6,6-dioxide] | IC50 [1, 6]: 0.0306 µM; IC50 ([2]; average IC50): 0.0022 µM |
| 230 | – | – | 0.0004 | Cc1cc(Cl)cnc1C(=O)Nc1ccc(F)c([C@]2(C)CS(=O)(=O)[C@@](C)(F)C(N)=N2)c1 [Example 388, N-(3-((3R,6R)-5-amino-6-fluoro-3,6-dimethyl-1,1-dioxido-3,6-dihydro-2H-1,4-thiazin-3-yl)-4-fluorophenyl)-5-chloro-3-methyl-2-pyridinecarboxamide] | IC50 ([1]; Homo sapiens, HEK293): 0.0479 µM |
| 68.1 | > 15.6 | 15.5 | – | CC1(C)C(N)=N[C@](C)(c2cc(Oc3ncc(F)c(C(F)(F)F)c3F)ccc2F)CS1(=O)=O [Example 262, (5R)-5-(5-((3,5-difluoro-4-(trifluoromethyl)-2-pyridinyl)oxy)-2-fluorophenyl)-2,2,5-trimethyl-5,6-dihydro-2H-1,4-thiazin-3-amine 1,1-dioxide] | – |
| 878 | 0.126 | 0.18 | – | Cc1ccnc(Oc2ccc(F)c([C@]3(C)CS(=O)(=O)C(C)(C)C(N)=N3)c2)c1 [Example 264, (5R)-5-(2-fluoro-5-((4-methyl-2-pyridinyl)oxy)phenyl)-2,2,5-trimethyl-5,6-dihydro-2H-1,4-thiazin-3-amine 1,1-dioxide] | – |
| 1220 | – | 0.00195 | – | C[C@]1(F)C(N)=N[C@](C)(c2cc(NC(=O)c3ccc(F)cn3)ccc2F)CS1(=O)=O [Example 322, N-(3-((3R,6R)-5-amino-6-fluoro-3,6-dimethyl-1,1-dioxido-3,6-dihydro-2H-1,4-thiazin-3-yl)-4-fluorophenyl)-5-fluoro-2-pyridinecarboxamide] | IC50 [1, 5]: 0.134 µM |
| 131 | – | 0.0046 | – | N-(3-((4aR,7aS)-3-amino-2,2-dimethyl-1,1-dioxido-7,7a-dihydro-2H-furo[3,4-b][1,4]thiazin-4a(5H)-yl)-4-fluorophenyl)-3-chloro-1,7-naphthyridin-8-amine, N-(3-((4aS,7aR)-3-amino-2,2-dimethyl-1,1-dioxido-7,7a-dihydro-2H-furo[3,4-b][1,4]thiazin-4a(5H)-yl)-4-fluorophenyl)-3-chloro-1,7-naphthyridin-8-amine [Example 429] | IC50 ([1]; average IC50, cell assay): 0.157 µM |
| 309 | – | 0.00971 | – | N-(3-((4aR,7aS)-3-amino-2,2-dimethyl-1,1-dioxido-7,7a-dihydro-2H-furo[3,4-b][1,4]thiazin-4a(5H)-yl)-4-fluorophenyl)-5-methoxy-3-methyl-2-pyridinecarboxamide, N-(3-((4aS,7aR)-3-amino-2,2-dimethyl-1,1-dioxido-7,7a-dihydro-2H-furo[3,4-b][1,4]thiazin-4a(5H)-yl)-4-fluorophenyl)-5-methoxy-3-methyl-2-pyridinecarboxamide [Example 428] | IC50 ([1]; average IC50, cell assay): 0.0373 µM |
| > 14.8 | – | – | 0.0083 | CCc1c(C(=O)Nc2ccc(F)c([C@]3(CF)CS(=O)(=O)C(C)(C)C(N)=N3)c2)nc2ccc(Cl)cn12 [Example 394, N-(3-((3S)-5-amino-3-(fluoromethyl)-6,6-dimethyl-1,1-dioxido-3,6-dihydro-2H-1,4-thiazin-3-yl)-4-fluorophenyl)-6-chloro-3-ethylimidazo[1,2-a]pyridine-2-carboxamide] | IC50 ([1]; Homo sapiens, HEK293): 0.0235 µM |
| 50.9 | – | – | 0.0149 | COc1cnc(C(=O)Nc2ccc(F)c([C@]3(C)CS(=O)(=O)CC(N)=N3)c2)cn1 [Example 28, N-(3-((3R)-5-amino-3-methyl-1,1-dioxido-3,6-dihydro-2H-1,4-thiazin-3-yl)-4-fluorophenyl)-5-methoxy-2-pyrazinecarboxamide] | IC50 [1, 4]: 0.068 µM |
| 418 | 0.0015 | 0.0023 | – | CC1(C)C(N)=N[C@](C)(c2cc(Nc3nncc4cc(C#N)cnc34)ccc2F)CS1(=O)=O [Example 162, (R)-8-((3-(5-amino-3,6,6-trimethyl-1,1-dioxido-3,6-dihydro-2H-1,4-thiazin-3-yl)-4-fluorophenyl)amino)pyrido[2,3-d]pyridazine-3-carbonitrile] | – |
| 45.2 | – | – | 0.0037 | CC1(C)C(N)=N[C@](C)(c2cc(Nc3nccc4nc(O)cnc34)cc(F)c2F)CS1(=O)=O [Example 71, (R)-5-Amino-3-(2,3-difluoro-5-((2-hydroxypyrido[3,4-b]pyrazin-5-yl)amino)phenyl)-3,6,6-trimethyl-3,6-dihydro-2H-1,4-thiazine 1,1-dioxide] | IC50 [1, 4]: 0.0474 µM |

| Compound | IC50 (Cathepsin D (Cat D)) [µM] | IC50 [1, 3] [µM] | IC50 ([2]; average IC50, enzyme assay) [µM] | IC50 [2] [µM] | other results |
| --- | --- | --- | --- | --- | --- |
| CC1(C)C(N)=N[C@](C)(c2cc(NC(=O)c3ccc(Cl)cn3)cc(F)c2F)CS1(=O)=O [Example 38, (R)—N-(3-(5-amino-3,6,6-trimethyl-1,1-dioxido-3,6-dihydro-2H-1,4-thiazin-3-yl)-4,5-difluorophenyl)-5-chloropicolinamide] | 72.8 | – | – | 0.001 | IC50 [1, 4]: 0.0065 µM |
| Cc1cc(Cl)cnc1C(=O)Nc1ccc(F)c([C@@]2(CF)CS(=O)(=O)C3(CC3)C(N)=N2)c1 [Example 215, N-(3-((6R)-8-amino-6-(fluoromethyl)-4,4-dioxido-4-thia-7-azaspiro[2.5]oct-7-en-6-yl)-4-fluorophenyl)-5-chloro-3-methyl-2-pyridinecarboxamide] | 432 | – | – | – | IC50 [1, 6]: 0.903 µM; IC50 ([2]; average IC50): 0.212 µM |
| COc1cnc2c(Nc3ccc(F)c([C@]4(C)CS(=O)(=O)C(C)(C)C(N)=N4)c3)nccc2c1 [Example 46, N-(3-((3R)-5-amino-3,6,6-trimethyl-1,1-dioxido-3,6-dihydro-2H-1,4-thiazin-3-yl)-4-fluorophenyl)-3-methoxy-1,7-naphthyridin-8-amine] | 397 | – | – | 0.0054 | IC50 [1, 4]: 0.004 µM |
